Data published in patent publication US11053251B2, “GPR35 modulators” (Prometheus Biosciences, Inc., priority 2019, dated 2021).

Assays:
Human GPR35 [1] = target: Human GPR35 (Homo sapiens, UniProt Q9HC97); test: Beta-Arrestin Assay (Tango U2OS cells, LiveBLAzer-FRET B/G); assay type: cell-based; conditions: Human GPR35 expressing Tango U2OS cells, 5 hours treatment
Procedure: Human GPR35 expressing Tango U2OS cells were plated in 384-well format in clear bottom plates at a cell density of 10,000 cells/well and allowed to grow overnight. The next day, cells were treated with serially diluted test compounds for 5 hours. LiveBLAzer-FRET B/G (CCF4-AM) detection reagents were then added and cells were allowed to incubate for 2 hours before reading plates on a BioTek Cytation 5 plate reader. Zaprinast was used as a positive control for dose-response curves. In order to determine EC50 values, data were fit to a four-parameter dose-response curve.

Human GPR35 [2] = target: Human GPR35 (Homo sapiens, UniProt Q9HC97, S294R); test: Alternative Beta-Arrestin Assay (JumpIn 294R Tango U2OS cells, LiveBLAzer-FRET B/G); assay type: cell-based; conditions: for EC50: Human GPR35 expressing JumpIn 294R Tango U2OS cells, 5 hours treatment
Outline: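 U2OS Tango cells expressing human GPR35 S294R, plated overnight, exposed to serially diluted compounds for 5 hours. β-lactamase reporter read with LiveBLAzer-FRET B/G (CCF4-AM) after 2 h; EC50 from four-parameter fit, zaprinast as positive control.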

Human GPR35 (Homo sapiens, UniProt Q9HC97, S294R), sequence (Q9HC97 whole entry S294R): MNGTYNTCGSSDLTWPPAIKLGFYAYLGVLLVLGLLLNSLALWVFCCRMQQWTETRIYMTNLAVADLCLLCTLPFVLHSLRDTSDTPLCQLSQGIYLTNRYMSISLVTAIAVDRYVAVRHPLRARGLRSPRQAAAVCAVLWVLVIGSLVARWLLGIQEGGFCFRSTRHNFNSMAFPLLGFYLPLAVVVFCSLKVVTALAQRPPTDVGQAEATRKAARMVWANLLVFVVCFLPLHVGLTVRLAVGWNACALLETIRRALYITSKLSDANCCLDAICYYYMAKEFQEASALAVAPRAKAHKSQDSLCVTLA
Human GPR35 (Homo sapiens, UniProt Q9HC97), sequence (Q9HC97 whole entry): as the sequence (Q9HC97 whole entry S294R) above, with R294S counted along it

What does the source list for CCOc1cc(-c2cccc(C(=O)O)c2)ccc1-c1nc2[nH]nnc2c(=O)[nH]1 [Compound 110, 3′-Ethoxy-4′-(7-oxo-6,7-dihydro-3H-[1,2,3]triazolo[4,5-d]pyrimidin-5-yl)-[1,1′-biphenyl]-3-carboxylic acid]?
EC50 (Human GPR35 [1]): ≤ 10 µM; EC50 (Human GPR35 [2]): ≤ 10 µM

What does the source list for CCOc1cc(-c2cccnc2)ccc1-c1nc2[nH]nnc2c(=O)[nH]1 [Compound 102, 5-(2-Ethoxy-4-(pyridin-3-yl)phenyl)-3,6-dihydro-7H-[1,2,3]triazolo[4,5-d]pyrimidin-7-one]?
EC50 (Human GPR35 [1]): ≤ 10 µM; EC50 (Human GPR35 [2]): ≤ 10 µM

CCOc1cc(Cc2ccc(C(=O)O)cc2)ccc1-c1nc2[nH]nnc2c(=O)[nH]1 [Compound 177, 4-(3-ethoxy-4-(7-oxo-6,7-dihydro-3H-[1,2,3]triazolo[4,5-d]pyrimidin-5-yl)benzyl)benzoic acid] was tested. Which EC50 (Human GPR35 [1]) did it give?
Its EC50 is ≤ 10 µM.

What about the EC50 (Human GPR35 [2]) of the same molecule?
The EC50 was ≤ 10 µM.

Which results are given for CCOc1cc(-c2ccncc2)ccc1-c1nc2[nH]nnc2c(=O)[nH]1 [Compound 104, 5-(2-Ethoxy-4-(pyridin-4-yl)phenyl)-3,6-dihydro-7H-[1,2,3]triazolo[4,5-d]pyrimidin-7-one]?
EC50 (Human GPR35 [1]): ≤ 10 µM; EC50 (Human GPR35 [2]): ≤ 10 µM

Which EC50 (Human GPR35 [1]) does the source give for CCOc1cc(-c2ccccc2C(=O)O)ccc1-c1nc2[nH]nnc2c(=O)[nH]1 [Compound 109, 3′-Ethoxy-4′-(7-oxo-6,7-dihydro-3H-[1,2,3]triazolo[4,5-d]pyrimidin-5-yl)-[1,1′-biphenyl]-2-carboxylic acid] here?
Its EC50 is ≤ 10 µM.

And the EC50 (Human GPR35 [2])?
Its EC50 is 10 to 50 µM.

How did the EC50 (Human GPR35 [1]) turn out when CCOc1cc(C#N)ccc1-c1nc2[nH]nnc2c(=O)[nH]1 [Compound 142, 3-ethoxy-4-(7-oxo-6,7-dihydro-3H-[1,2,3]triazolo[4,5-d]pyrimidin-5-yl)benzonitrile] was run?
Its EC50 is ≤ 10 µM.

What about the EC50 (Human GPR35 [2]) of the same molecule?
The EC50 was ≤ 10 µM.

Which EC50 (Human GPR35 [1]) does the source give for CCOc1cc(N2CCC[C@H]2C(=O)O)ccc1-c1nc2[nH]nnc2c(=O)[nH]1 [Compound 162, (3-ethoxy-4-(7-oxo-6,7-dihydro-3H-[1,2,3]triazolo[4,5-d]pyrimidin-5-yl)phenyl)-L-proline] here?
The EC50 was ≤ 10 µM.

And the EC50 (Human GPR35 [2])?
The EC50 was 10 to 50 µM.

CCOc1cc(C(=O)Nc2ccccc2)ccc1-c1nc2[nH]nnc2c(=O)[nH]1 [Compound 134, 3-Ethoxy-4-(7-oxo-6,7-dihydro-3H-[1,2,3]triazolo[4,5-d]pyrimidin-5-yl)-N-phenylbenzamide] was tested. Which EC50 (Human GPR35 [1]) did it give?
Its EC50 is ≤ 10 µM.

What about the EC50 (Human GPR35 [2]) of the same molecule?
Its EC50 is ≤ 10 µM.

What does the source list for CCOc1cc(-c2cnn(CC(=O)O)c2)ccc1-c1nc2[nH]nnc2c(=O)[nH]1 [Compound 127, 2-(4-(3-Ethoxy-4-(7-oxo-6,7-dihydro-3H-[1,2,3]triazolo[4,5-d]pyrimidin-5-yl)phenyl)-1H-pyrazol-1-yl)acetic acid]?
EC50 (Human GPR35 [1]): ≤ 10 µM; EC50 (Human GPR35 [2]): ≤ 10 µM

Which EC50 (Human GPR35 [1]) does the source give for CCOc1cc(-c2cncc(C(=O)O)c2)ccc1-c1nc2[nH]nnc2c(=O)[nH]1 [Compound 113, 5-(3-Ethoxy-4-(7-oxo-6,7-dihydro-3H-[1,2,3]triazolo[4,5-d]pyrimidin-5-yl)phenyl)nicotinic acid] here?
Its EC50 is ≤ 10 µM.

What about the EC50 (Human GPR35 [2]) of the same molecule?
Its EC50 is ≤ 10 µM.

Which results are given for CCOc1cc(N2CCCC2=O)ccc1-c1nc2[nH]nnc2c(=O)[nH]1 [Compound 165, 5-(2-ethoxy-4-(2-oxopyrrolidin-1-yl)phenyl)-3,6-dihydro-7H-[1,2,3]triazolo[4,5-d]pyrimidin-7-one]?
EC50 (Human GPR35 [1]): ≤ 10 µM; % inhibition at 50 μM (Human GPR35 [2]; at 50 μM, Table 2): 66% inhibition at

What does the source list for CCOc1cc(C(=O)N2CCCCC2C(=O)O)ccc1-c1nc2[nH]nnc2c(=O)[nH]1 (centres unmarked) [Compound 171, 1-(3-ethoxy-4-(7-oxo-6,7-dihydro-3H-[1,2,3]triazolo[4,5-d]pyrimidin-5-yl)benzoyl)piperidine-2-carboxylic acid]?
EC50 (Human GPR35 [1]): > 10 µM; EC50 (Human GPR35 [2]): 10 to 50 µM

How did the EC50 (Human GPR35 [1]) turn out when CCOc1cc(C(=O)N[C@H](CCC(=O)O)C(=O)O)ccc1-c1nc2[nH]nnc2c(=O)[nH]1 [Compound 169, (3-ethoxy-4-(7-oxo-6,7-dihydro-3H-[1,2,3]triazolo[4,5-d]pyrimidin-5-yl)benzoyl)-D-glutamic acid] was run?
Its EC50 is ≤ 10 µM.

What about the EC50 (Human GPR35 [2]) of the same molecule?
The EC50 was ≤ 10 µM.

How did the EC50 (Human GPR35 [1]) turn out when O=c1[nH]c(-c2ccc(CO)cc2)nc2[nH]nnc12 [Compound 148, 5-(4-(hydroxymethyl)phenyl)-3,6-dihydro-7H-[1,2,3]triazolo[4,5-d]pyrimidin-7-one] was run?
The EC50 was > 10 µM.

And the EC50 (Human GPR35 [2])?
Its EC50 is > 50 µM.

How did the EC50 (Human GPR35 [1]) turn out when CCOc1cc(-c2ccc(C(=O)OC)cc2)ccc1-c1nc2[nH]nnc2c(=O)[nH]1 [Compound 108, Methyl 3′-ethoxy-4′-(7-oxo-6,7-dihydro-3H-[1,2,3]triazolo[4,5-d]pyrimidin-5-yl)-[1,1′-biphenyl]-4-carboxylate] was run?
The EC50 was ≤ 10 µM.

What about the EC50 (Human GPR35 [2]) of the same molecule?
Its EC50 is ≤ 10 µM.

With CCOc1cc(C(=O)N2CCCC(C(=O)O)C2)ccc1-c1nc2[nH]nnc2c(=O)[nH]1 (centres unmarked) [Compound 172, 1-(3-ethoxy-4-(7-oxo-6,7-dihydro-3H-[1,2,3]triazolo[4,5-d]pyrimidin-5-yl)benzoyl)piperidine-3-carboxylic acid] as the molecule, how does the EC50 (Human GPR35 [1]) read?
The EC50 was ≤ 10 µM.

What about the EC50 (Human GPR35 [2]) of the same molecule?
Its EC50 is 10 to 50 µM.

Which results are given for CCOc1cc(C(=O)N2CC[C@H](C(=O)O)C2)ccc1-c1nc2[nH]nnc2c(=O)[nH]1 [Compound 160, (S)-1-(3-ethoxy-4-(7-oxo-6,7-dihydro-3H-[1,2,3]triazolo[4,5-d]pyrimidin-5-yl)benzoyl)pyrrolidine-3-carboxylic acid]?
EC50 (Human GPR35 [1]): ≤ 10 µM; EC50 (Human GPR35 [2]): ≤ 10 µM

Which EC50 (Human GPR35 [1]) does the source give for CCOc1cc(-c2ccc(C(=O)OC)nc2)ccc1-c1nc2[nH]nnc2c(=O)[nH]1 [Compound 124, Methyl 5-(3-ethoxy-4-(7-oxo-6,7-dihydro-3H-[1,2,3]triazolo[4,5-d]pyrimidin-5-yl)phenyl)picolinate] here?
The EC50 was ≤ 10 µM.

What about the EC50 (Human GPR35 [2]) of the same molecule?
Its EC50 is ≤ 10 µM.

CCCOc1cc(-c2cccc(C(=O)O)c2)ccc1-c1nc2[nH]nnc2c(=O)[nH]1 [Compound 128, 4′-(7-Oxo-6,7-dihydro-3H-[1,2,3]triazolo[4,5-d]pyrimidin-5-yl)-3′-propoxy-[1,1′-biphenyl]-3-carboxylic acid] was tested. Which EC50 (Human GPR35 [1]) did it give?
The EC50 was ≤ 10 µM.

What about the EC50 (Human GPR35 [2]) of the same molecule?
Its EC50 is ≤ 10 µM.

Which results are given for CCOc1cc(-c2ccc(CC(=O)O)cc2)ccc1-c1nc2[nH]nnc2c(=O)[nH]1 [Compound 115, 2-(3′-Ethoxy-4′-(7-oxo-6,7-dihydro-3H-[1,2,3]triazolo[4,5-d]pyrimidin-5-yl)-[1,1′-biphenyl]-4-yl)acetic acid]?
EC50 (Human GPR35 [1]): ≤ 10 µM; EC50 (Human GPR35 [2]): ≤ 10 µM

With CCOc1cc(-c2ccc(C)c(C(=O)O)c2)ccc1-c1nc2[nH]nnc2c(=O)[nH]1 [Compound 155, 3′-ethoxy-4-methyl-4′-(7-oxo-6,7-dihydro-3H-[1,2,3]triazolo[4,5-d]pyrimidin-5-yl)-[1,1′-biphenyl]-3-carboxylic acid] as the molecule, how does the EC50 (Human GPR35 [1]) read?
Its EC50 is ≤ 10 µM.

What about the EC50 (Human GPR35 [2]) of the same molecule?
The EC50 was ≤ 10 µM.

Which results are given for CCOc1cc(-c2ccccc2CC(=O)O)ccc1-c1nc2[nH]nnc2c(=O)[nH]1 [Compound 119, 2-(3′-Ethoxy-4′-(7-oxo-6,7-dihydro-3H-[1,2,3]triazolo[4,5-d]pyrimidin-5-yl)-[1,1′-biphenyl]-2-yl)acetic acid]?
EC50 (Human GPR35 [1]): ≤ 10 µM; EC50 (Human GPR35 [2]): ≤ 10 µM

CCOc1cc(N2CC[C@@H](C(=O)O)C2)ccc1-c1nc2[nH]nnc2c(=O)[nH]1 [Compound 167, (R)-1-(3-ethoxy-4-(7-oxo-6,7-dihydro-3H-[1,2,3]triazolo[4,5-d]pyrimidin-5-yl)phenyl)pyrrolidine-3-carboxylic acid] was tested. Which EC50 (Human GPR35 [1]) did it give?
Its EC50 is ≤ 10 µM.

And the EC50 (Human GPR35 [2])?
Its EC50 is ≤ 10 µM.

CCOc1cc(-c2ccc(CC(=O)OC)cc2)ccc1-c1nc2[nH]nnc2c(=O)[nH]1 [Compound 114, Methyl 2-(3′-ethoxy-4′-(7-oxo-6,7-dihydro-3H-[1,2,3]triazolo[4,5-d]pyrimidin-5-yl)-[1,1′-biphenyl]-4-yl)acetate] was tested. Which EC50 (Human GPR35 [1]) did it give?
The EC50 was ≤ 10 µM.

What about the EC50 (Human GPR35 [2]) of the same molecule?
The EC50 was ≤ 10 µM.

For CCOc1cc(-c2ccc(C(=O)O)cc2)ccc1-c1nc2[nH]nnc2c(=O)[nH]1 [Compound 111, 3′-Ethoxy-4′-(7-oxo-6,7-dihydro-3H-[1,2,3]triazolo[4,5-d]pyrimidin-5-yl)-[1,1′-biphenyl]-4-carboxylic acid], which EC50 (Human GPR35 [1]) is on record?
Its EC50 is ≤ 10 µM.

And the EC50 (Human GPR35 [2])?
The EC50 was ≤ 10 µM.

With CCOc1cc(C(N)=O)ccc1-c1nc2[nH]nnc2c(=O)[nH]1 [Compound 135, 3-Ethoxy-4-(7-oxo-6,7-dihydro-3H-[1,2,3]triazolo[4,5-d]pyrimidin-5-yl)benzamide] as the molecule, how does the EC50 (Human GPR35 [1]) read?
Its EC50 is ≤ 10 µM.

And the EC50 (Human GPR35 [2])?
The EC50 was ≤ 10 µM.

Which results are given for CCOc1cc(-c2ccccc2CC(=O)OC)ccc1-c1nc2[nH]nnc2c(=O)[nH]1 [Compound 118, Methyl 2-(3′-ethoxy-4′-(7-oxo-6,7-dihydro-3H-[1,2,3]triazolo[4,5-d]pyrimidin-5-yl)-[1,1′-biphenyl]-2-yl)acetate]?
EC50 (Human GPR35 [1]): ≤ 10 µM; EC50 (Human GPR35 [2]): ≤ 10 µM

What does the source list for CCOc1cc(-c2ccc(C(=O)OC)s2)ccc1-c1nc2[nH]nnc2c(=O)[nH]1 [Compound 116, Methyl 5-(3-ethoxy-4-(7-oxo-6,7-dihydro-3H-[1,2,3]triazolo[4,5-d]pyrimidin-5-yl)phenyl)thiophene-2-carboxylate]?
EC50 (Human GPR35 [1]): ≤ 10 µM; EC50 (Human GPR35 [2]): ≤ 10 µM

CCOc1cc(-c2ccc(Cl)c(C(=O)O)c2)ccc1-c1nc2[nH]nnc2c(=O)[nH]1 [Compound 180, 4-chloro-3′-ethoxy-4′-(7-oxo-6,7-dihydro-3H-[1,2,3]triazolo[4,5-d]pyrimidin-5-yl)-[1,1′-biphenyl]-3-carboxylic acid] was tested. Which EC50 (Human GPR35 [1]) did it give?
The EC50 was ≤ 10 µM.

What about the EC50 (Human GPR35 [2]) of the same molecule?
The EC50 was ≤ 10 µM.

With CCOc1cc(N)ccc1-c1nc2[nH]nnc2c(=O)[nH]1 [Compound 137, 5-(4-amino-2-ethoxyphenyl)-3,6-dihydro-7H-[1,2,3]triazolo[4,5-d]pyrimidin-7-one] as the molecule, how does the EC50 (Human GPR35 [1]) read?
Its EC50 is ≤ 10 µM.

And the EC50 (Human GPR35 [2])?
Its EC50 is ≤ 10 µM.

Which results are given for CCOc1cc(-c2nnn[nH]2)ccc1-c1nc2[nH]nnc2c(=O)[nH]1 [Compound 143, 5-(2-ethoxy-4-(1H-tetrazol-5-yl)phenyl)-3,6-dihydro-7H-[1,2,3]triazolo[4,5-d]pyrimidin-7-one]?
EC50 (Human GPR35 [1]): ≤ 10 µM; EC50 (Human GPR35 [2]): ≤ 10 µM
